Reference: US20040248937A1, “Substituted phenylalkanoic acids for the treatment of diabetes” (The Institute for Pharmaceutical Discovery LLC, priority 2003, published 2004)

System: insulin resistant rats
Test: Euglycemic insulin clamp in High Fat Diet fed insulin resistant rats after a single oral dose
Type: in vivo, Male Wistar rats
Details: for EGP (endogenous glucose production) / GIR (glucose infusion rate) / GU (glucose utilization): 4 hrs before clamp, mean ± sem
Experimental: Male Wistar rats were fed a High Fat Diet for at least 4 weeks. Jugular vein and carotid artery cannulations were performed one week prior to the clamp experiment. Test compound (Compound 15) is administered p.o. 4 hrs before the clamp and labeled 3-3H-glucose is infused 1 hr prior to calculated endogenous glucose production (EGP). Insulin is infused at a rate of 0.75 U/kg/hr raising plasma insulin levels to […]. To maintain euglycemia (80 mg/dl), unlabeled glucose is infused at a variable rate and adjusted every 10 minutes.

CCc1ccc(-c2sc(NC(=O)c3ccc(S(=O)(=O)N[C@@H](Cc4ccccc4)C(=O)O)cc3)nc2-c2ccc(Cl)cc2)cc1 [Compound 15, N-{[4-({[4-(4-chlorophenyl)-5-(4-ethylphenyl)-1,3-thiazol-2-yl]amino}carbonyl)phenyl]sulfonyl}phenylalanine]
EGP (endogenous glucose production) (10 mg/kg single oral dose): 1.4 ± 1.8 mg/kg/min
GIR (glucose infusion rate) (10 mg/kg single oral dose): 29.6 ± 5.0 mg/kg/min
GU (glucose utilization) (10 mg/kg single oral dose): 28.3 ± 6.6 mg/kg/min
effect on endogenous glucose production (EGP) (30 mg/kg p.o., result in words): enhanced suppression
effect on glucose infusion rate (GIR) (30 mg/kg p.o., result in words): significantly increased
effect on glucose utilization (GU) (30 mg/kg p.o., result in words): augmented stimulation
EGP (endogenous glucose production) (30 mg/kg single oral dose): 0.16 ± 0.5 mg/kg/min
GIR (glucose infusion rate) (30 mg/kg single oral dose): 30.8 ± 2.2 mg/kg/min
GU (glucose utilization) (30 mg/kg single oral dose): 30.7 ± 2.00 mg/kg/min
EGP (endogenous glucose production) (60 mg/kg single oral dose): 0.77 ± 0.4 mg/kg/min
GIR (glucose infusion rate) (60 mg/kg single oral dose): 38.0 ± 2.2 mg/kg/min
GU (glucose utilization) (60 mg/kg single oral dose): 37.3 ± 2.3 mg/kg/min
